In ChEMBL document CHEMBL4715864, “Discovery of 2-(5-(quinolin-6-yl)-1,3,4-oxadiazol-2-yl)acetamide derivatives as novel PI3Kα inhibitors via docking-based virtual screening” (Bioorg Med Chem, 2021) one finds IC50, inhibition and Ratio IC50 data, which are given here for 13 compounds.

A word on the IC50: it is the concentration at which inhibition is half-maximal. By inhibition is commonly meant the share of the control response that was lost under treatment.

Each structure is given as a SMILES string. Where only a bound is given, the exact number is not on record here.

In assay [1] the target is T1, Phosphatidylinositol 4,5-bisphosphate 3-kinase catalytic subunit alpha isoform (Homo sapiens, UniProt P42336). Kind of assay: Inhibition of PI3Kalpha (unknown origin) using PIP2 as substrate measured after 1 hr by ADP-glo plus luminescence assay. (In general: ADP-Glo turns the ADP formed in a reaction into a luminescent signal.)
T1 sequence (P42336 whole entry, canonical isoform): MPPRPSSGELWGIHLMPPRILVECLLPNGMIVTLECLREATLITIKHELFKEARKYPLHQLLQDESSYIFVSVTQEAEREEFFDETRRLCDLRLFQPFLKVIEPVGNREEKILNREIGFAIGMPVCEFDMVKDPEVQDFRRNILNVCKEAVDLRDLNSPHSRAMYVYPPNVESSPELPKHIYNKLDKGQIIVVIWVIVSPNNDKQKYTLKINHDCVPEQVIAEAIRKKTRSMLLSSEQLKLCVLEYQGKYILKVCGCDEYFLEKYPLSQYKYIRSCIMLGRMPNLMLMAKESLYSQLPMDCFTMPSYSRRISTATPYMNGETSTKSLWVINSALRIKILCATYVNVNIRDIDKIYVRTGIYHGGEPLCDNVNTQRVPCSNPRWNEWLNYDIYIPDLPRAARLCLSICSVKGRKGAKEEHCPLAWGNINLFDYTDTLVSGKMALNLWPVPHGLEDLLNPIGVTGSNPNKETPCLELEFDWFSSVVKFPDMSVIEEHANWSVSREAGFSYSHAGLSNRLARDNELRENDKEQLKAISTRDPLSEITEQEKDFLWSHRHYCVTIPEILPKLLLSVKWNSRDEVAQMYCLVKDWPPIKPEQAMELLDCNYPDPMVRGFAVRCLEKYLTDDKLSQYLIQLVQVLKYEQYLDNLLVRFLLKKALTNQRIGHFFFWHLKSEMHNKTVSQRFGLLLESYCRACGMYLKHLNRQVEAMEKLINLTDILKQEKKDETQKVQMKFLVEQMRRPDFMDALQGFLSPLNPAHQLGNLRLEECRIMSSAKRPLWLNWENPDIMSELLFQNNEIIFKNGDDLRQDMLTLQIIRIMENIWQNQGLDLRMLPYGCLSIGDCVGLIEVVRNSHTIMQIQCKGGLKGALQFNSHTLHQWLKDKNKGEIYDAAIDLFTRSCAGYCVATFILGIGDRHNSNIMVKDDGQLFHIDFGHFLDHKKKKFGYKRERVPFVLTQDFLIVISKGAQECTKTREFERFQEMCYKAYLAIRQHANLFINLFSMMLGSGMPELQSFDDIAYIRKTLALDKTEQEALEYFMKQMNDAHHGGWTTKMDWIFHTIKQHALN
Assay [2] addresses T1, Phosphatidylinositol 4,5-bisphosphate 3-kinase catalytic subunit alpha isoform. Briefly: Inhibition of PI3Kalpha (unknown origin) assessed as inhibition rate using PIP2 as substrate at 10 uM measured after 1 hr by ADP-glo plus luminescence assay.
The target in assay [3] is Phosphatidylinositol 4,5-bisphosphate 3-kinase catalytic subunit gamma isoform (Homo sapiens, UniProt P48736). Briefly: Inhibition of PI3Kgamma (unknown origin) using PIP2 as substrate measured after 1 hr by ADP-glo plus luminescence assay.
Sequence of Phosphatidylinositol 4,5-bisphosphate 3-kinase catalytic subunit gamma isoform (P48736 whole entry, canonical isoform): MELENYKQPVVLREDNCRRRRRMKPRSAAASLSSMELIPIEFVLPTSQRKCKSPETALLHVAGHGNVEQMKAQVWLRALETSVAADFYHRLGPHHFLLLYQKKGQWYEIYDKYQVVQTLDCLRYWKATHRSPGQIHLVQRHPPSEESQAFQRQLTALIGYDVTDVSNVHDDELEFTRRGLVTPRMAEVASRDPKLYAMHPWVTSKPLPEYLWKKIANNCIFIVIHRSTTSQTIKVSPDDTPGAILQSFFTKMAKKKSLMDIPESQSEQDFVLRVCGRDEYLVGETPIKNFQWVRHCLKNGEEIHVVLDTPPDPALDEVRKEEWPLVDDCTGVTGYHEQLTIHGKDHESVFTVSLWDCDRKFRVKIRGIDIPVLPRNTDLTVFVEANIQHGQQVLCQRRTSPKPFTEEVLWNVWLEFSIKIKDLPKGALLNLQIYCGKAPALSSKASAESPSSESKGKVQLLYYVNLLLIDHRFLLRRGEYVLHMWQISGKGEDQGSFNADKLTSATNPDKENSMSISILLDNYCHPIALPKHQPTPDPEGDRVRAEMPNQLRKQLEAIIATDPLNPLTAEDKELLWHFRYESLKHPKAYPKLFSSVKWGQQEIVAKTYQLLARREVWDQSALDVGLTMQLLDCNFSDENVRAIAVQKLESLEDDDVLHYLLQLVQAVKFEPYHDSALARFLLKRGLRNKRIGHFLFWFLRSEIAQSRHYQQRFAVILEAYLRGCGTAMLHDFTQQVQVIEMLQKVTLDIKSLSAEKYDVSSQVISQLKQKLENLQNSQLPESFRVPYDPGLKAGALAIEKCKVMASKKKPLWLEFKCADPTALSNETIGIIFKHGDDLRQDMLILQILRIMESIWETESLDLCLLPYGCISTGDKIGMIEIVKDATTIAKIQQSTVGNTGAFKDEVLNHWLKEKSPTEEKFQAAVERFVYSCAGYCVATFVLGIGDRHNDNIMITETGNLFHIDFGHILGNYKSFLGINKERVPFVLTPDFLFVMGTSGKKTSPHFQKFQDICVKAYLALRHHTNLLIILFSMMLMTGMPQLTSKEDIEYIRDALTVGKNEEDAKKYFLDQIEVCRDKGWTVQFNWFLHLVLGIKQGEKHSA
In assay [4] the target is T2, Phosphatidylinositol 4,5-bisphosphate 3-kinase catalytic subunit delta isoform (Homo sapiens, UniProt O00329).
T2 sequence (O00329 whole entry): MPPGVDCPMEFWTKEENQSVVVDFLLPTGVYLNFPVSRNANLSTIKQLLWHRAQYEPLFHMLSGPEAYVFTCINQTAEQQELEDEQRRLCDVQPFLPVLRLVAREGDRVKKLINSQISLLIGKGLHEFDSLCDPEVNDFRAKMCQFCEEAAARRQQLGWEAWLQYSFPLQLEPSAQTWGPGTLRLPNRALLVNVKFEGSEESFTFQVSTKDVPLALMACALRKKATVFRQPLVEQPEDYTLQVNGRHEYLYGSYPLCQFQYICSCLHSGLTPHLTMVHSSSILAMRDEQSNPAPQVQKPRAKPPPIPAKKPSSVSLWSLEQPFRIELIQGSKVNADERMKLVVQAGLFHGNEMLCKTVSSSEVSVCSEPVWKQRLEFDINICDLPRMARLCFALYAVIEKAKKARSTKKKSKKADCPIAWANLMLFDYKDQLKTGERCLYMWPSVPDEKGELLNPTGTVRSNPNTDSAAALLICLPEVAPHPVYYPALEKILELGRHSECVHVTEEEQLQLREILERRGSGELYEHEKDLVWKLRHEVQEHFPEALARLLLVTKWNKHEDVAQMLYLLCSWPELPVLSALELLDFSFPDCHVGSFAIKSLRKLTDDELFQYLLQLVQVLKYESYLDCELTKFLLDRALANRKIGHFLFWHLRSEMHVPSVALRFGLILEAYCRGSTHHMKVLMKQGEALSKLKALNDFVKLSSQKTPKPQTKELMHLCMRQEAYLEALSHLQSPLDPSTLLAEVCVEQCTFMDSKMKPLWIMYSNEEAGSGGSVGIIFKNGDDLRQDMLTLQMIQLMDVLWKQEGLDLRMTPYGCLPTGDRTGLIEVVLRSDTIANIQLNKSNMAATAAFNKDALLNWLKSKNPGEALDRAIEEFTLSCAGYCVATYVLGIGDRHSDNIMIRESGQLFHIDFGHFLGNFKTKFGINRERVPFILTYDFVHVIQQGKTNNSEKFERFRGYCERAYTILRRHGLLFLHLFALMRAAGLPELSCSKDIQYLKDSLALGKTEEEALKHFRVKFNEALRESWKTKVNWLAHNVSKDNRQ
Briefly: Inhibition of PI3Kdelta (unknown origin) using PIP2 as substrate measured after 1 hr by ADP-glo plus luminescence assay.

For assay [5], the target named is Phosphatidylinositol 4,5-bisphosphate 3-kinase catalytic subunit beta isoform (Homo sapiens, UniProt P42338). Kind of assay: Inhibition of PI3Kbeta (unknown origin) using PIP2 as substrate measured after 1 hr by ADP-glo plus luminescence assay.
Sequence of Phosphatidylinositol 4,5-bisphosphate 3-kinase catalytic subunit beta isoform (P42338 whole entry, canonical isoform): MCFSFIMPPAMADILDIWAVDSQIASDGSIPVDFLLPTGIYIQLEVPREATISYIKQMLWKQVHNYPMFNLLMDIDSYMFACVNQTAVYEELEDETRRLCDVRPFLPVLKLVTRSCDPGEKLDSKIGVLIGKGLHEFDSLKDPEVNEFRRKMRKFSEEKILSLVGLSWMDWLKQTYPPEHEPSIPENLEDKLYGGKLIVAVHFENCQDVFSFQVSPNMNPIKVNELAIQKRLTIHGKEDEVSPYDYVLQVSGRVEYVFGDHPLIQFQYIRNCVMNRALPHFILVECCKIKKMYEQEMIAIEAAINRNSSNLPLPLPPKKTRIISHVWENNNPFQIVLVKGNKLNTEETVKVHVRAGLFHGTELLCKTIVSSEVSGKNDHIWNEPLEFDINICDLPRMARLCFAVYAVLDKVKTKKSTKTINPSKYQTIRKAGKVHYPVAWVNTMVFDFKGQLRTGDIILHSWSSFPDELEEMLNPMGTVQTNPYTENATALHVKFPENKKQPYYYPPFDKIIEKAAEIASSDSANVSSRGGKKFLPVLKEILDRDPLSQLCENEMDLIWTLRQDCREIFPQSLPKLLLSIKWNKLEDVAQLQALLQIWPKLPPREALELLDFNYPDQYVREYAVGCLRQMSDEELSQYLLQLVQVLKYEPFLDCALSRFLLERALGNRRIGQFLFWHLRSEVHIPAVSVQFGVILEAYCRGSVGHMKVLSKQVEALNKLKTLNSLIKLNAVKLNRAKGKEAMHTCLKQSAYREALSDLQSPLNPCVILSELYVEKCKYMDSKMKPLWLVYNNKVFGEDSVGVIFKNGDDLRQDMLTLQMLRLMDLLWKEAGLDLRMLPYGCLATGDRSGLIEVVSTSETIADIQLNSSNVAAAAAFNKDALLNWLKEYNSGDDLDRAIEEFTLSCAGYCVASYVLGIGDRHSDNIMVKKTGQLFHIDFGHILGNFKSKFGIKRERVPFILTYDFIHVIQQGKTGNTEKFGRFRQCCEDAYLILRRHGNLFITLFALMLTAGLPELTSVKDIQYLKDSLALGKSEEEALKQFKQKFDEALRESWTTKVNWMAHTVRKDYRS
Assay [6] is filed under the species Homo sapiens. Briefly: Selectivity ratio of IC50 for PI3Kgamma (unknown origin) to IC50 for PI3Kalpha (unknown origin).

Turning to `O=C(Cc1nnc(-c2ccc3ncccc3c2)o1)Nc1cccc(C(F)(F)F)c1`, the IC50 in assay [1] was more than 200 µM.

For the compound `COc1ccc(NC(=O)Cc2nnc(-c3ccc4ncccc4c3)o2)cc1OC`, in assay [1], the IC50 is more than 200 µM. As for `O=C(Cc1nnc(-c2ccc3ncccc3c2)o1)NCc1ccc(F)cc1Cl`, the inhibition in assay [2] worked out at 55.5%. The IC50 in assay [1] is 15.6 µM. The like results for `O=C(Cc1nnc(-c2ccc3ncccc3c2)o1)NCCc1ccccc1` were, in that order, 73.8% and 29.2 µM.

For `O=C(Cc1nnc(-c2ccccn2)o1)NCc1ccc(F)cc1Cl`, the IC50 in assay [1] is more than 200 µM.

With `CC(C)NC(=O)CSc1nc(-c2ccc3c(c2)OCO3)nc2cc(=O)[nH]n12`, in assay [2], the inhibition was determined as 71.9%. In addition, in assay [1], the IC50 amounted to 17 µM. As to `O=C(Cc1nnc(-c2ccc3ncccc3c2)o1)NCCc1ccc(Cl)cc1`, the IC50 in assay [3] was 9.8 µM; in assay [4], 16.6 µM; in assay [5], 2.6 µM; in assay [1] it was 6.6 µM. On to `O=C(Cc1nnc(-c2ccc3ncccc3c2)o1)Nc1ccc(OC(F)(F)F)cc1`, for which the IC50 in assay [1] is more than 200 µM. With `O=C(Cc1nnc(-c2ccc3c(c2)OCO3)o1)NCc1ccc(F)cc1`, in assay [1], the IC50 was more than 200 µM. Regarding `COc1ccc(CNC(=O)Cc2nnc(-c3ccc4ncccc4c3)o2)cc1OC`, the IC50 in assay [3] turned out to be 152 µM; in assay [4], 14.2 µM; in assay [5], 4.1 µM; in assay [1], 7.6 µM. Also, in assay [6], the Ratio IC50 came to 20.

With `N#Cc1cc(NC(=O)Cc2nnc(-c3ccc4ncccc4c3)o2)ccc1F`, the IC50 in assay [1] was more than 200 µM.

As to `O=C(Cc1nnc(-c2ccc3ncccc3c2)o1)N1CCN(c2ccccc2)CC1`, the IC50 in assay [1] is more than 200 µM. Same read-out and setting: the same measure for `COc1ccccc1CNC(=O)Cc1nnc(-c2ccc3ncccc3c2)o1`: 18.3 µM.
